Where no end group is shown, it is not given here.

The values below come from PMC2890073 (Immunogenetics, 2010).

One experiment deals with HLA-B*5301 (Homo sapiens, UniProt P01889, A329T/A93T/A95T/C349S/D201E/D98Y/E176V/E187L/E204Q/E69T/G107R/I218V/K202T/L105A/L119I/N104I/Q94N/R106L/R155S/R180L/S101N/S121R/S35A/S48A/T118I/V127L/V306I/V36M/Y140S/Y91F). In words: HLA-B*5301 peptide binding assay.
A further experiment addresses HLA-B*3501 (Homo sapiens, UniProt P01889, A329T/A93T/A95T/C349S/D201E/D98Y/E176V/E187L/E204Q/E69T/I218V/K202T/L119I/Q94N/R155S/R180L/S121R/S35A/S48A/T118I/V127L/V306I/V36M/Y140S/Y91F). In words: HLA-B*3501 peptide binding assay.
The target in another experiment is HLA-B*0702 (Homo sapiens, UniProt P01889). In words: HLA-B*0702 peptide binding assay.

For `CC(C)C[C@H](NC(=O)[C@@H]1CCCN1C(=O)[C@@H](N)Cc1ccc(O)cc1)C(=O)N[C@H](C(=O)N[C@@H](Cc1ccccc1)C(=O)NCC(=O)N[C@@H](Cc1c[nH]c2ccccc12)C(=O)N[C@@H](CS)C(=O)N[C@@H](Cc1ccccc1)C(=O)O)[C@@H](C)O`, the IC50 on HLA-B*5301 was determined as 9.5 nM. Molecule HPDIVIYQY registered an IC50 at HLA-B*3501 of 7.9 nM. Consider `CC(C)C[C@H](NC(=O)[C@@H]1CCCN1C(=O)[C@@H](NC(=O)[C@H](CCC(N)=O)NC(=O)[C@@H]1CCCN1C(=O)[C@@H](NC(=O)[C@@H](NC(=O)[C@@H]1CCCN1C(=O)[C@@H](N)Cc1ccccc1)C(C)C)[C@@H](C)O)C(C)C)C(=O)O`, for which, on HLA-B*0702, the IC50 is 1 nM.

The term IC50 denotes the concentration that inhibits the measured activity by half. Higher therefore signals weaker potency.
